Assay results as given in patent publication US8552058B2, “Application of L-n-butylphthalide in preventing and treating dementia” (CSPC Zhongqi Pharmaceutical Technology (Shijazhuang) Co., …, priority 2004, dated 2013).
Entries after “also recorded” stand apart in the source; their conditions may differ.

How the values were obtained:
Assay type in all cases: in vivo, Wistar rats
[1] = test system: rats with continuous perfusion of Aβ (1-40) into lateral ventricle; assay: Morris' water maze and working memory test after continuous i.c.v. perfusion of Aβ (1-40); settings: for search strategy after 5 days of training / latency after 5 days of training: Aβ (1-40) i.c.v. rats; for latency after 5 days of training: mean±standard error, model 30.18±4.81, sham 13.02±2.77, p<0.05 vs model
Protocol: For Morris' Water Maze Automatic Monitor and experimental protocols, reference may be made to the experiments of learning and memory damage of rats induced by brain hypoperfusion.
(§1) Male Wistar rats, which were 10-weeks old and weighed approximately 280 grams, were used. One animal was placed in one cage, while the room temperature was kept at 23° C., with food and water freely accessible. Rats were anaesthetized with sodium pentobarbital (40 mg/kg), and were fixed to stereotaxic apparatus with the position of ventral decubitus. Head skin was cut open, a cannula for Aβ (1-40) perfusion was implanted into right ventricle. According to the stereotaxic profile of rat brain by Paxions and Watson, the implantation site was located 0.3 mm behind and 1.1 mm in the right side of anterior fontanelle, with the depth of 4.0 mm. The cannula was connected to a micro-osmotic pump. The pump was placed on the back of the rat. Aβ (1-40) was dissolved in 35% acetonitrile/0.1% trifluroacetic acid, and was continuously perfused intracerebroventricularly (i.c.v.) at 300 pmol/day, while only the solvent (35% acetonitrile/0.1% trifluroacetic acid) was perfused in the control group.
(§2) Rats were randomly classified into […] groups, with 10 animals per group. 1) the sham surgery group: only 35% acetonitrile/0.1% trifluroacetic acid+solvent was perfused into the ventricles of the rats; 2) the model group: Aβ (1-40)+solvent; 3) Aβ (1-40)+L-NBP 10 mg/kg group; 4) Aβ (1-40)+L-NBP 30 mg/kg group. Respective drug or solvent was drenched since the 2nd day after the surgery. The water maze experiment was performed on the 9-13 day after the surgery, while the platform exploration experiment was performed on the 13th day, and the working memory test was performed on the 14-16th days. Animals were decapitated to remove brains for biochemical assay on the 17th day. In all ethological tests, medicines were administered 40 minutes prior to the respective test.
The water maze training experiment was performed on the 9-13th day after icv Aβ (1-40), and the platform exploration experiment was performed on the 13 day after that. The working memory test was performed on the 14-16th day after icv Aβ (1-40) (see the figure above), which investigated the ability of rapid learning and spatial memory in animals when the platform and quadrant were changed, based on the fact that animals had memorized in some extent after training and platform exploration experiment. Experimental procedure was similar to the standard water maze training experiment except that the platform's location was changed every day. The experiment was conducted five times every day, allowing the rats to start swimming from five water-entry sites respectively. […] In the following 4 experiments, the location of the platform was kept constant, yet the water entry sites were within different quadrants. The latency of working memory was calculated by averaging those of the 2-5th experiments, and the ability of working memory of each rat was calculated by averaging the experimental values in 3 days.
(§3) All results were expressed in mean±standard error. Comparison of latencies between groups in water maze experiment was performed using two-factor analysis of variance in replicate. Comparison between groups was performed using post hoc LSD or Turkey test. Platform exploration test in water maze experiment, working memory test and biochemical assay were analyzed using one-factor analysis of variance. A difference was considered significant when p<0.05.

[2] = test system: glutathione peroxidase (GSH-Px); assay: GSH-Px activity in cortex and hippocampus after continuous perfusion of Aβ (1-40); settings: Aβ (1-40) rats; for GSH-PX, hippocampus / GSH-PX, cortex: n = 7; for GSH-PX, hippocampus: model 9.32 ± 1.01, sham 16.19 ± 1.19; for GSH-PX, cortex: model 11.18 ± 1.32, sham 15.86 ± 0.91
Protocol: as §1, §2
Malondialdehyde (MDA) and glutathione peroxidase (GSH-Px) were determined by the same assays as above.
as §3

[3] = test system: choline acetyltransferase (ChAT); assay: ChAT activity in cortex and hippocampus of hypoperfused (2-VO) rats; settings: 10 mg/kg
[4] = test system: neurons, substantia alba of optic tracts and GFAP-positive astrocytes in brain; assay: Pathological and immunohistochemical detection (H-E, K-B, GFAP staining) in 2-VO rats
Protocol: Male Wistar rats, which were 10-weeks old and weighed approximately 280 grams, were used. 5 animals were placed in each cage, while the room temperature was kept at 23° C., with food and water freely accessible. Rats were anaesthetized with sodium pentobarbital (40 mg/kg), then bilateral common carotid arteries were exposed and the envelope of common carotid arteries and vagus nerve was carefully separated. For the hypoperfusion model group, bilateral common carotid arteries were ligated with 5-0 silk thread. For the sham surgery group, the same operation was conducted but with no ligation of bilateral common carotid arteries. A little of sterile crystalline sulfanilamide powder was applied on the wound after the surgery, then the skin was sutured. One month after the surgery, water maze and step-through test were performed. Rats were randomly assigned into 8 groups, with 10 animals per group. 1) sham surgery group: the same operation as that in hypoperfusion group was conducted but without ligation of bilateral common carotid arteries; 2) solvent control group: only vegetable oil was orally administered; 3) DL-NBP 10 mg/kg group; 4) DL-NBP 30 mg/kg group; 5) L-NBP 10 mg/kg group; 6) L-NBP 30 mg/kg group; 7) D-NBP 30 mg/kg group; Respective medicines or solvent were drenched since the 10th day after the surgery. Water maze experiments were performed on the 29-33rd days since the surgery, while step-through tests were performed on the 34-35th days since the surgery. Animals were killed for biochemical assay or pathological examination on the 36th day. In all the ethological tests, medicines were administered 40 minutes prior to respective test. 4-6 animals were chosen from each group randomly. After the ethological experiments, rats were anaesthetized with pentobarbital (100 mg/kg ip). Animal's skin and thorax was sequentially cut open and the heart was sufficiently exposed. Left tip of the heart was cut open, a perfusion needle was inserted along the aorta. After clamping with hemostat, physiological saline was infused. […]

[5] = test system: rats with permanent ligation of bilateral common carotid arteries (2-VO model); assay: Morris' water maze (training latency, platform exploration) in 2-VO hypoperfusion model; settings: for amelioration of impaired short-term memory and spatial orientation (overall conclusion): 2-VO rats with poor blood supply to brain, L-NBP at 10 mg/kg, 10 mg/kg

Compound: CCCC[C@@H]1OC(=O)c2ccccc21 [L-NBP, L-n-butylphthalide]
- search strategy after 5 days of training ([1]; 10 mg/kg oral): changed from peripheral and random to purposive and linear
- latency after 5 days of training ([1]; 10 mg/kg oral): 27.28 ± 6.42 s
- search strategy after 5 days of training ([1]; 30 mg/kg oral): changed from peripheral and random to purposive and linear
- latency after 5 days of training ([1]; 30 mg/kg oral): 25.88 ± 5.51 s
- working memory (latency in 2-5th experiments) ([1]; 10 and 30 mg/kg, days 14-16 after Aβ (1-40), model 14.05±1.88 s, sham 9.15±0.91 s, p<0.01): can significantly improve the working memory ability in a dose-dependent way; also recorded: could improve the working memory of rats in a dose-dependent manner
- amelioration of impaired short-term memory and stereotaxic memory (overall conclusion) ([1]; continuous perfusion of Aβ (1-40) into lateral ventricle, rats, Morris' water maze): could significantly ameliorate
- GSH-Px activity after treatment (in words) ([2]; 10 mg/kg): could also increase the activity of GSH-Px, but with no statistically significant difference
- GSH-PX, hippocampus ([2]; 10 mg/kg): 12.73 ± 1.34 U/mg protein
- GSH-PX, cortex ([2]; 10 mg/kg): 11.73 ± 0.53 U/mg protein
- GSH-PX, hippocampus ([2]; 30 mg/kg, p<0.01 vs model): 18.91 ± 1.16 U/mg protein
- GSH-PX, cortex ([2]; 30 mg/kg, p<0.01 vs model): 15.40 ± 1.03 U/mg protein
- GSH-Px activity after treatment (in words) ([2]; 30 mg/kg, p<0.01): increased significantly
- GSH-Px activity and MDA content (overall conclusion) [2]: could improve GSH-Px activity and reduce MDA content
- improvement of cortical ChAT activity as compared with the model group ([3]; continuous administration for 16 days, 2-VO rats, p<0.05): 37.1%
- ChAT activity, cortex ([3]; hypoperfused rats, n = 7-9, solvent control 65.6 ± 15.1, p<0.05 vs solvent control): 104.3 ± 8.2 % of sham
- ChAT activity, hippocampus ([3]; hypoperfused rats, n = 7-9, solvent control 102.6 ± 15.1): 110.0 ± 13.5 % of sham
- number of GFAP-positive astrocytes (immunohistochemistry) ([4]; 10 mg/kg): greatly reduced
- sparse substantia alba / vacuola in optic tracts (K-B staining) ([4]; 10 mg/kg extended administration): significant reduction of vacuola
- neuronal damage in cortex and hippocampal CA1 induced by hypoperfusion (H-E staining) ([4]; 10 mg/kg, 5 weeks after ligation): could be significantly ameliorated
- detention time in the target quadrant (platform exploration test, 60 seconds free swimming) ([5]; 10 mg/kg oral, 2-VO rats, mean±standard error, solvent control 14.40±0.73, sham 17.73±1.19, p<0.05 vs solvent control): 17.62 ± 1.27 s
- latency (time required for finding the platform) after 5 days of training ([5]; 10 mg/kg oral, 2-VO rats, mean±standard error, solvent control 47.6±5.88, sham surgery 12.6±3.34, p<0.001 vs solvent control): 26.85 ± 5.98 s
- search strategy after 5 days of training ([5]; 10 mg/kg oral, 2-VO rats, solvent control still peripheral and random): changed from peripheral and random to purposive and linear
- amelioration of impaired short-term memory and spatial orientation (overall conclusion) [5]: could significantly ameliorate
- amelioration of impaired short-term memory and spatial orientation (overall conclusion) ([5]; listed as L-n-butylphthalide): could significantly improve; also recorded: could significantly ameliorate
